Test results taken from patent US7919247B2, “Simultaneous quantification of nucleic acids in diseased cells” (Pharmasset, Inc., priority 2000, dated 2011).
Like-named read-outs stand apart in the source and are kept apart here.

Tests used:
[1] = biological target: T1, mitochondrial RNA polymerase (Homo sapiens, UniProt O00411); test: quantitative RT-PCR of mitochondrial COXII RNA calibrated against nuclear RNA transcripts; type: cell-based; details: normalized for no treatment
T1 construct: endogenous in cells; HepG2 inferred from the preceding paragraphs
Experimental: Similar results were also obtained if this technology was carried out in a quantitative reverse-transcriptase-PCR protocol. This approach measures the potential inhibition of antiviral compounds for the mitochondrial RNA polymerase, in comparison with the nuclear RNA polymerases I (generating mainly rRNA transcripts), RNA polymerase II (generating mainly mRNA transcripts), or of lesser importance, RNA polymerase III (generating mainly tRNA transcripts). To obtain such results, amplification of either rRNA, or -actin mRNA as calibrator is required.

[2] = biological target: T2, mitochondrial DNA polymerase γ (Homo sapiens, UniProt P54098)
T2 sequence (P54098 1-1239): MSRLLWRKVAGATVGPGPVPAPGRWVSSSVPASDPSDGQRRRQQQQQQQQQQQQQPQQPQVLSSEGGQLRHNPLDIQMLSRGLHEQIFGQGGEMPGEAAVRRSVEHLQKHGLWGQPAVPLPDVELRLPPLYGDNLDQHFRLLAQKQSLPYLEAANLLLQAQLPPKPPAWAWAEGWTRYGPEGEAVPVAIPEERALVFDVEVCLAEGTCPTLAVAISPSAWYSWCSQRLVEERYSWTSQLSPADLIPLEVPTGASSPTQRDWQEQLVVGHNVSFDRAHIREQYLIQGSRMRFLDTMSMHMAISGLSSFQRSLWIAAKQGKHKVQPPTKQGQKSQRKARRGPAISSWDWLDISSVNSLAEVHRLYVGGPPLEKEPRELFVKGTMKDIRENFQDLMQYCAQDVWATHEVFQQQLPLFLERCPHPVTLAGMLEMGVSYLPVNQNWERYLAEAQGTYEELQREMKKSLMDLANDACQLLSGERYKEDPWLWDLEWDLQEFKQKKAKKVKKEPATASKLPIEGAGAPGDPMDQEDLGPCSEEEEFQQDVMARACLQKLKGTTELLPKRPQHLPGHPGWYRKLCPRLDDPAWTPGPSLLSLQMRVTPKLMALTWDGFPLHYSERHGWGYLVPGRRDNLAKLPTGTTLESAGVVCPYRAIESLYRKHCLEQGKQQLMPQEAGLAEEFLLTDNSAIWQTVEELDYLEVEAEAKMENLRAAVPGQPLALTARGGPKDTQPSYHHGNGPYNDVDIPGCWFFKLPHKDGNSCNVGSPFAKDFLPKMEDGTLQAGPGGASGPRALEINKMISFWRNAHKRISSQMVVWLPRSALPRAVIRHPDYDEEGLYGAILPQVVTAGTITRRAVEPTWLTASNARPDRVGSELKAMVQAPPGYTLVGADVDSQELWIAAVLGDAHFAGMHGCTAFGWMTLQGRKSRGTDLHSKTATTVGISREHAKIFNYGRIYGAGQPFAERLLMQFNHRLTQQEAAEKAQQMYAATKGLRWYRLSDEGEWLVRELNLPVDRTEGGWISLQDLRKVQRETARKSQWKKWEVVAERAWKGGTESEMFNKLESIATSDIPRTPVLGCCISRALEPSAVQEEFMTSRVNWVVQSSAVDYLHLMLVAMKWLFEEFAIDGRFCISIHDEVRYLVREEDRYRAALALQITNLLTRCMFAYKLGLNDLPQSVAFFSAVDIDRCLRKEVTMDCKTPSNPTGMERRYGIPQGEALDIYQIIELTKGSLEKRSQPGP
T2 sequence (Q9UHN1 26-485 partner limits assumed): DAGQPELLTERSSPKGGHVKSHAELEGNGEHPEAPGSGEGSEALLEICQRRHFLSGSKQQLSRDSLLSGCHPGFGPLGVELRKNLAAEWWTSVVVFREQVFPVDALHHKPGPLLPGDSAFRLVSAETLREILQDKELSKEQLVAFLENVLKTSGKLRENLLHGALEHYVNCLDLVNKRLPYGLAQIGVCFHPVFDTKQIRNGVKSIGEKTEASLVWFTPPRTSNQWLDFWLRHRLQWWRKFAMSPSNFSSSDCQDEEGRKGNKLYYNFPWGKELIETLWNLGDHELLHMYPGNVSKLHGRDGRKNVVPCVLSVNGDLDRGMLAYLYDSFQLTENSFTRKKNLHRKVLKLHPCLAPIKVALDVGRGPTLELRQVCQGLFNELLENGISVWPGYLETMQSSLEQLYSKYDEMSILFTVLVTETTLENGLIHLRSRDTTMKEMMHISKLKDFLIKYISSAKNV

[3] = test system: HIV-1 xxBRU (sensitive strain); test: endogenous viral RT assay of culture supernatant, HIV-1 infected human PBMC
[4] = test system: HIV-1 xxBRU (sensitive strain); test: real-time RT-PCR HIV-1 viral load in culture supernatant, infected human PBMC
[5] = MTS/MTT dye toxicity assay; type: cell-based, human; details: human
Experimental: (§1) After a three day-incubation, or 4 for CEM, or 5 days for PBMC, cell viability and mitochondrial activity were measured in a colorimetric assay using the MTS- or MTT dye (Promega, Wis.).
(§2) The cytotoxicity testing as performed here is a standard technique. Briefly, cells are seeded in 96-well plates at various concentrations (dependent on cell type, duration of assay), typically at 5×10^3 cells per well, in the presence of increasing concentrations of the test compound (0, 1, 3, 10, 33, and 100 μM). After a three day-incubation, cell viability and mitochondrial activity are measured by adding the MTS-dye (Promega), followed by a 3 hours incubation. Afterwards the plates containing the dye are read at 490 nm. Such methodologies are well described and available from the manufacturer (Promega).

[6] = MTS/MTT dye toxicity assay; type: cell-based
Experimental: as §1, §2

PBMC = test: MTS/MTT dye toxicity assay; type: cell-based, human; details: human PBMC, evaluated up to 100 μM
Experimental: as §1, §2

CEM = test: MTS/MTT dye toxicity assay; type: cell-based; details: CEM cells, evaluated up to 100 μM
Experimental: as §1, §2

VERO = test: MTS/MTT dye toxicity assay; type: cell-based; details: Vero cells, evaluated up to 100 μM
Experimental: as §1, §2

[7] = biological target: T2, mitochondrial DNA polymerase γ; test: real-time PCR mitochondrial DNA polymerase toxicity (COXII vs β-actin DNA, comparative Ct) in HepG2 cells; details: 7-day incubation with up to 10 μM
[8] = xxBRU, RT assay, human PBMC, 5 days
[9] = xxBRU, real-time RT-PCR, human PBMC, 5 days
[10] = Human immunodeficiency virus 1, PBMC, 120 h

T1 sequence (O00411 42-1230): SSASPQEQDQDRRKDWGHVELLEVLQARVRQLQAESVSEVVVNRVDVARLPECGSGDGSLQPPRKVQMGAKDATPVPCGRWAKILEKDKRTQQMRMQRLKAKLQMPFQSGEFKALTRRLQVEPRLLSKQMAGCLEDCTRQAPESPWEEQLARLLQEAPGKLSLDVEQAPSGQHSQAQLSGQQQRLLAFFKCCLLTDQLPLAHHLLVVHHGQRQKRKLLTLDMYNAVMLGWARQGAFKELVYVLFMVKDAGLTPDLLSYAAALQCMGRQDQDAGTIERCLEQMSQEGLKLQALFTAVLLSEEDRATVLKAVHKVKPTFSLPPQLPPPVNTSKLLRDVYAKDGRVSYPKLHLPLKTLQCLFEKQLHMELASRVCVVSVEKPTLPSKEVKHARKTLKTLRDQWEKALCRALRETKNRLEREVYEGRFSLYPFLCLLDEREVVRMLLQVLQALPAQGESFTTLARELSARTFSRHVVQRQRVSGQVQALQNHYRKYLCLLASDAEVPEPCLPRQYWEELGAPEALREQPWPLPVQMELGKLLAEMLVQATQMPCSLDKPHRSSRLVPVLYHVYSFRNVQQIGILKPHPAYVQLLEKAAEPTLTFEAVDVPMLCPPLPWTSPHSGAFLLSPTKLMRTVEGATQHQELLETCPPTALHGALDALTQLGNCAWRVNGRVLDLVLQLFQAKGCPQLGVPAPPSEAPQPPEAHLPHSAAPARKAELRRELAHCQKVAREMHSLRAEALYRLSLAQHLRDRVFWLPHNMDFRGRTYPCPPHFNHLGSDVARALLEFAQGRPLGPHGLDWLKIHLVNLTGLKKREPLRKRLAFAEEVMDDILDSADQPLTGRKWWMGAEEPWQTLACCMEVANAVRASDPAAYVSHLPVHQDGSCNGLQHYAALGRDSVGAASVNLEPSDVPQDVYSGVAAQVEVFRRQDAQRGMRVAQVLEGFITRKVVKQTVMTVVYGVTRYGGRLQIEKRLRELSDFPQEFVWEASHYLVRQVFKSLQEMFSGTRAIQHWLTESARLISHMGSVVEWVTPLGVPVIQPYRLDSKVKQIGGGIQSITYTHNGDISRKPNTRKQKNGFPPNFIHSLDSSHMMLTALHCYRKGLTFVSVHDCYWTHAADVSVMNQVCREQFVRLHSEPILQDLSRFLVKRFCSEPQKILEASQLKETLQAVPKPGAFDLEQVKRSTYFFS

With `Nc1ccn([C@H]2CC[C@@H](CO)O2)c(=O)n1` [D-DDC] the “mitochondrial (COXII) RNA levels” value [1] was “significant reduction in mitochondrial RNA levels” and the “mitochondrial DNA reduction as compared to the no-drug control” value [2] was “dose-dependent reduction in mitochondrial DNA synthesis”.

Compound `Nc1ccn([C@@H]2CS[C@H](CO)O2)c(=O)n1` [3TC] has an EC50 [3, 8] of 18 nM, an EC90 [3, 8] of 77 nM and an EC50 [4, 9] of 30 nM. The EC90 [4, 9] was 120 nM.

In the case of (−)-FTC [(-) FTC], the “mitochondrial (COXII) RNA levels” value [1] is reported as “did not affect the COXII RNA levels”, the EC50 [3, 8] is reported as 11 nM and the EC90 [3, 8] is reported as 50 nM. For the same compound, the EC50 [4, 9] was 5.9 nM, the EC90 [4, 9] was 88 nM and the “mitochondrial DNA reduction as compared to the no-drug control” value [2] was “does not induce any significant mitochondrial DNA reduction”.

Work on `Nc1ccn([C@@H]2S[C@H](CO)C=C2F)c(=O)n1` [β-D-d4-2′F-(4-S-pentenyl)-C] yielded a CC50 at 5 days [5] of over 100000 nM, an EC50 [3, 10] of 5980 nM and an EC90 [3, 10] of 23200 nM. For the same compound, the CC50 at 3 days ([6]; African green monkey) was over 100000 nM, the CC50 at 3 days ([6]; human) was over 100000 nM and the CC50 at 4 days ([6]; human) was over 100000 nM. For the same compound, the EC50 [4, 10] was 2680 nM and the EC90 [4, 10] was 18100 nM.

With `Nc1ccn([C@H]2S[C@@H](CO)C=C2F)c(=O)n1` [β-L-d4-2′F-(4-S-pentenyl)-C] the CC50 at 5 days ([5]; PBMC, read-out: CC50) was over 100000 nM, the “cytotoxicity in MTS-dye assay” value (PBMC) was “no cytotoxicity was observed” and the EC50 [3, 10] was 1610 nM. It also gave an EC90 [3, 10] of 11600 nM, a CC50 at 3 days ([6]; African green monkey, VERO, read-out: CC50) of over 100000 nM and a CC50 at 4 days ([6]; human, CEM, read-out: CC50) of over 100000 nM. For the same compound, the CC50 at 3 days ([6]; human, HepG2, read-out: CC50) was over 100000 nM, the “cytotoxicity in MTS-dye assay” value (CEM) was “no cytotoxicity was observed” and the “cytotoxicity in MTS-dye assay” value (VERO) was “no cytotoxicity was observed”. The EC50 [4, 10] was 400 nM, the EC90 [4, 10] was 2680 nM and the “mitochondrial toxicity (γ-DNA polymerase inhibition)” value [7] was “no toxicity”.

Work on `Cc1cn([C@H]2C[C@H](N=[N+]=[N-])[C@@H](CO)O2)c(=O)[nH]c1=O` [AZT] yielded an EC50 [3, 8] of 3.4 nM, an EC90 [3, 8] of 34 nM and an EC50 [4, 9] of 3.9 nM. It also gave an EC90 [4, 9] of 36 nM.

In the case of `Cc1cn([C@H]2C=C[C@@H](CO)O2)c(=O)[nH]c1=O` [d4T], the EC50 [3, 8] is reported as 3.4 nM, the EC90 [3, 8] is reported as 130 nM and the EC50 [4, 9] is reported as 2.7 nM. For the same compound, the EC90 [4, 9] was 120 nM.
